System: pig lens
Assay: Swelling and cloudiness of extracted pig lenses soaked in test or control solutions (traumatic cataract model)
Parameters: key to degree of cloudiness in the lens (relative value): relative gray-scale density; uninjured lens in saline at start = 10
Procedure: Using an injured pig lens employed as a model for traumatic cataract, the influence of cyclic tetrasaccharide on the cloudiness in the lens was experimented as follows: A test solution was previously prepared by dissolving a cyclic tetrasaccharide crystal, penta hydrate, which had been prepared by the method in the later described Reference for Example 2, in physiological saline into a physiological saline containing 100 mM cyclic tetrasaccharide. As a positive control, a physiological saline containing 100 mM α,α-trehalose, a reagent grade specimen, commercialized by Hayashibara Biochemical Laboratories, Inc., Okayama, Japan, was used; andasanegativecontrol, physiological saline was used. Two milliliter aliquots of any one of the above three kinds of aqueous solutions were added to every two wells in respective commercialized 24-well culture plates. In one of the two wells containing the same kind of solution in each plate was placed a pig lens, which had been obtained from a slaughter-house, extracted by incision within three hours after the obtention and without injuring, and washing the extracted lens with physiological saline; while in the other of the two wells was placed a pig lens, which had been prepared by the same procedure as in the above but injured with a 27-gauge injection needle (commercialized by Terumo Co., Tokyo, Japan) to form an injured line, about one millimeter in length. These lens were allowed to stand at ambient temperature and macroscopically and microscopically observed their change in the degree of cloudiness and in the shape of swelling, etc. This experiment was run in a triplicate manner, and the macroscopic and microscopic observations were done just after (0), 1 hour, 2 hours, 6 hours, and 24 hours after the lenses were placed in the wells, and then observed daily over 28 days. A similar experiment was further conducted using a physiological saline containing 75 mM, 50 mM, 20 mM, 10 mM, or 1 mM cyclic tetrasaccharide and a lens that had not been injured with the injection needle. The degree of cloudiness in each lens, observed with “STEREOMICROSCOPE SZX12”, a product name of a stereomicroscope commercialized by Olympus Co., Tokyo, Japan, was expressed by photographing a transmitted light image of each lens with “PENGUIN 150CL”, a digital camera commercialized by Pixela Co., Tokyo, Japan, capturing the transmitted image by a computer using a view finder commercialized by Olympus Co., Tokyo, Japan, and expressing numerically the degree of light and shade of the captured image as a gray-scale using “Scion Image for Windows Beta 4.0.2”, a software commercialized by Scion Co., Maryland, U.S.A., to obtain a mean density for each lens. The time course change in the degree of cloudiness in each lens placed in each solution was expressed with a relative value, regarding the degree of cloudiness, just after the lens free of injury had been placed in physiological saline, as 10. The change of cloudiness and swelling are respectively in Tables 1 and 2. In Table 1, there show only the results from time 0 hour through two days and from days 7, 14 and 28.

[1] = 1 mM in physiological saline, no injury, 28 days
[2] = 10 mM in physiological saline, no injury, 28 days
[3] = 20 mM in physiological saline, no injury, 28 days
[4] = pig lens in physiological saline

Structure (SMILES): OCC1OC2OCC3O[C@H](O[C@H]4C(O)C(CO)OC(OCC5O[C@H](O[C@@H](C1O)C2O)C(O)C(O)[C@@H]5O)C4O)C(O)C(O)[C@@H]3O (stereo partly drawn) [Test solution, cyclo{→6)-α-D-glucopyranosyl-(1→3)-α-D-glucopyranosyl-(1→6)-α-D-glucopyranosyl-(1→3)-α-D-glucopyranosyl-(1→}]
- degree of cloudiness in the lens (relative value) (1 mM in physiological saline, no injury, 1 hour): 11
- degree of cloudiness in the lens (relative value) (1 mM in physiological saline, no injury, 2 hours): 12
- degree of cloudiness in the lens (relative value) (1 mM in physiological saline, no injury, 6 hours): 11
- degree of cloudiness in the lens (relative value) (1 mM in physiological saline, no injury, 24 hours): 12
- degree of cloudiness in the lens (relative value) (1 mM in physiological saline, no injury, 2 days): 14
- degree of cloudiness in the lens (relative value) (1 mM in physiological saline, no injury, 7 days): 55
- degree of cloudiness in the lens (relative value) (1 mM in physiological saline, no injury, 14 days): 61
- degree of cloudiness in the lens (relative value) [1]: 85
- swelling of the lens [1]: ◯ (swelling was observed)
- degree of cloudiness in the lens (relative value) (1 mM in physiological saline, no injury, time 0): 10
- degree of cloudiness in the lens (relative value) (10 mM in physiological saline, no injury, 1 hour): 12
- degree of cloudiness in the lens (relative value) (10 mM in physiological saline, no injury, 2 hours): 11
- degree of cloudiness in the lens (relative value) (10 mM in physiological saline, no injury, 6 hours): 12
- degree of cloudiness in the lens (relative value) (10 mM in physiological saline, no injury, 24 hours): 11
- degree of cloudiness in the lens (relative value) (10 mM in physiological saline, no injury, 2 days): 13
- degree of cloudiness in the lens (relative value) (10 mM in physiological saline, no injury, 7 days): 49
- degree of cloudiness in the lens (relative value) (10 mM in physiological saline, no injury, 14 days): 59
- degree of cloudiness in the lens (relative value) [2]: 87
- swelling of the lens [2]: ◯ (swelling was observed)
- degree of cloudiness in the lens (relative value) (10 mM in physiological saline, no injury, time 0): 10
- degree of cloudiness in the lens (relative value) (20 mM in physiological saline, no injury, 1 hour): 11
- degree of cloudiness in the lens (relative value) (20 mM in physiological saline, no injury, 2 hours): 12
- degree of cloudiness in the lens (relative value) (20 mM in physiological saline, no injury, 6 hours): 12
- degree of cloudiness in the lens (relative value) (20 mM in physiological saline, no injury, 24 hours): 12
- degree of cloudiness in the lens (relative value) (20 mM in physiological saline, no injury, 2 days): 14
- degree of cloudiness in the lens (relative value) (20 mM in physiological saline, no injury, 7 days): 51
- degree of cloudiness in the lens (relative value) (20 mM in physiological saline, no injury, 14 days): 60
- degree of cloudiness in the lens (relative value) [3]: 71
- swelling of the lens [3]: ◯ (swelling was observed)
- degree of cloudiness in the lens (relative value) (20 mM in physiological saline, no injury, time 0): 10
- cloudiness in the lens (in words) (20 mM, 10 mM or 1 mM, lenses with no injury, from seven days): cloudiness was observed throughout the lenses
- swelling of the lens (in words) (20 mM, 10 mM or 1 mM, lenses with no injury, until 14 days): No swelling of the lenses was observed
- degree of cloudiness in the lens (relative value) (50 mM in physiological saline, no injury, 1 hour): 11
- degree of cloudiness in the lens (relative value) (50 mM in physiological saline, no injury, 2 hours): 12
- degree of cloudiness in the lens (relative value) (50 mM in physiological saline, no injury, 6 hours): 12
- degree of cloudiness in the lens (relative value) (50 mM in physiological saline, no injury, 24 hours): 12
- degree of cloudiness in the lens (relative value) (50 mM in physiological saline, no injury, 2 days): 13
- degree of cloudiness in the lens (relative value) (50 mM in physiological saline, no injury, 7 days): 15
- degree of cloudiness in the lens (relative value) (50 mM in physiological saline, no injury, 14 days): 20
- degree of cloudiness in the lens (relative value) (50 mM in physiological saline, no injury, 28 days): 28
- degree of cloudiness in the lens (relative value) (50 mM in physiological saline, no injury, time 0): 10
- degree of cloudiness in the lens (relative value) (75 mM in physiological saline, no injury, 1 hour): 11
- degree of cloudiness in the lens (relative value) (75 mM in physiological saline, no injury, 2 hours): 12
- degree of cloudiness in the lens (relative value) (75 mM in physiological saline, no injury, 6 hours): 12
- degree of cloudiness in the lens (relative value) (75 mM in physiological saline, no injury, 24 hours): 12
- degree of cloudiness in the lens (relative value) (75 mM in physiological saline, no injury, 2 days): 12
- degree of cloudiness in the lens (relative value) (75 mM in physiological saline, no injury, 7 days): 14
- degree of cloudiness in the lens (relative value) (75 mM in physiological saline, no injury, 14 days): 21
- degree of cloudiness in the lens (relative value) (75 mM in physiological saline, no injury, 28 days): 29
- degree of cloudiness in the lens (relative value) (75 mM in physiological saline, no injury, time 0): 10
- swelling of the lens (in words) (75 mM or 50 mM, lenses with no injury, until 28 days): No swelling was observed
- degree of cloudiness in the lens (relative value) (100 mM in physiological saline, injured lens, 1 hour): 10
- degree of cloudiness in the lens (relative value) (100 mM in physiological saline, injured lens, 2 hours): 10
- degree of cloudiness in the lens (relative value) (100 mM in physiological saline, injured lens, 6 hours): 12
- degree of cloudiness in the lens (relative value) (100 mM in physiological saline, injured lens, 24 hours): 12
- degree of cloudiness in the lens (relative value) (100 mM in physiological saline, injured lens, 2 days): 12
- degree of cloudiness in the lens (relative value) (100 mM in physiological saline, injured lens, time 0): 10
- degree of cloudiness in the lens (relative value) (100 mM in physiological saline, no injury, 1 hour): 13
- degree of cloudiness in the lens (relative value) (100 mM in physiological saline, no injury, 2 hours): 12
- degree of cloudiness in the lens (relative value) (100 mM in physiological saline, no injury, 6 hours): 12
- degree of cloudiness in the lens (relative value) (100 mM in physiological saline, no injury, 24 hours): 12
- degree of cloudiness in the lens (relative value) (100 mM in physiological saline, no injury, 2 days): 11
- degree of cloudiness in the lens (relative value) (100 mM in physiological saline, no injury, 7 days): 12
- degree of cloudiness in the lens (relative value) (100 mM in physiological saline, no injury, 14 days): 15
- degree of cloudiness in the lens (relative value) (100 mM in physiological saline, no injury, 28 days): 15
- degree of cloudiness in the lens (relative value) (100 mM in physiological saline, no injury, time 0): 10
- swelling of the lens (in words) (100 mM, injured lens, 2 days after initiating observation): the swelling of the lens was not observed
- cloudiness in the lens (in words) (100 mM, injured lens, after 2 days): partial cloudiness only at the injured site
- swelling of the lens (in words) (100 mM, lenses with no injury, on 28 days): no swelling
- concentration with a satisfactory swelling-inhibitory-effect on the lens [4]: ≥ 1 mM
- concentration with an action of inhibiting the swelling and cloudiness in the lens and maintaining transparency [4]: ≥ 50 mM
